2 molecules from patent US20150316565A1, “Methodologies and Reagents for Detecting Fibrinolysis and Hyperfibrinolysis” (Haemonetics Corporation, priority 2014, published 2015) can be followed below.

Test [1] deals with fibrinolysis in a blood sample with reduced platelet function. In words: Functional Fibrinogen (FF) TEG assay with and without tranexamic acid (TXA).
The subject of test [2] is fibrinolysis in citrated blood with FF reagent (GPIIb/IIIa receptor antagonist). Nature of the test: Functional Fibrinogen TEG assay with/without TXA, blood spiked with increasing t-PA, ΔLY30. The arrangement: species or system human. To be noted: 15 healthy donors, eight t-PA concentrations, FIG. 10. As for the experimental part: The two TEG cups for each of the fifteen donors at the eight different t-PA concentrations were analyzed on a TEG 5000 device.

In test [3] the test system is fibrinolysis in citrated whole blood. In words: Citrated Kaolin (CK) TEG assay, blood spiked with increasing t-PA, LY30. The arrangement: species or system human. The conditions noted are these: 15 healthy donors, eight t-PA concentrations, FIG. 9. As for the experimental part: For the Citrated Kaolin group, citrated blood from each of the donors (e.g., whole blood collected into a tube containing sodium citrate (thereby creating a ratio blood to citrate of approximately 9:1) is collected. For eight different tPA concentrations, 0.5 ml of the blood was gently mixed with Kaolin (a coagulation activator) and increasing concentrations of t-PA to induce fibrinolysis. Aliquots were transferred to 37° C. TEG cups, and the samples were analyzed using the TEG 5000 device, and the LY30 calculated for each of the 15 donors at each of the tPA concentrations. The results plotting the LY30 against the t-PA concentration are shown in FIG. 9.

Take `NC[C@H]1CC[C@H](C(=O)O)CC1` [TXA, tranexamic acid]: the LY30 entry in test [1] (TXA-treated sample of FIG. 6, amplitude at 74 minutes, the sample not treated with TXA had LY30 approximately 50%) is listed as “approximately 0.1%”. In addition, the “TEG tracing of the TXA-treated portion compared with the portion not treated with TXA” value in test [1] (blood from a patient with fibrinolysis or hyperfibrinolysis, FIGS. 5 and 6, divergence from about 2 minutes) was “higher amplitude, faster growing TEG tracing”.

For “tPA: tissue plasminogen activator, converts inactive plasminogen to active plasmin; spiked into blood to induce fibrinolysis”, the “Detection threshold [tPA] for ΔLY30” value in test [2] was in the range of 25 to 50 ng/mL. In test [3], the “Detection threshold [tPA] for CK-LY30” value lay within 75 to 100 ng/mL.
